# “Also recorded” adds a separate entry of the source. Like-named read-outs stand apart in the source and are kept apart here.
# Key:
# Src kinase domain [1] = target: T1, Src kinase domain (Gallus gallus, UniProt P00523); test: Fluorescence anisotropy binding assay, substrate peptide to Src kinase domain (wild type); set-up: species or system chicken; settings: for cooperativity of peptide and AMP-PNP binding: Kd at various concentrations of AMP-PNP, 1 μM labelled peptide; for change of Kd of substrate peptide by AMP-PNP: increasing AMP-PNP concentration; for binding cooperativity of substrates and products (summary): ATP + substrate peptide, ADP + pRS1, Src kinase
# T1 construct: chicken c-Src (residues 251–533); made in house
# Method: After a 1-min equilibration, the increase in the fluorescence anisotropy of the fluorescently labelled ligand was recorded using a Fluoromax 4 (Horiba) and fitted against a quadratic binding equation in Kaleidagraph (Synergy Software) to yield the Kd. Error bars represent the s.e. of the mean of the independent runs.
# Src kinase domain [2] = target: T1, Src kinase domain; test: Isothermal titration calorimetry, nucleotide binding to Src kinase domain; set-up: species or system chicken; settings: for Kd: isothermal titration calorimetry, 25 °C, 20 mM Tris (pH 8.0), 250 mM NaCl, 10 mM MgCl2; for fold reduction of nucleotide Kd by phosphorylated peptide (pRs1): presence of pRs1
# Method: (§1) Thermodynamic binding parameters for the binding of nucleotides to the Src kinase domain were obtained through isothermal titration calorimetry as published. All experiments were run in a VP-ITC instrument (Microcal) at 25 °C. Proteins were exchanged into 20 mM Tris (pH 8.0), 250 mM NaCl, 10 mM MgCl2 on PD-10 buffer exchange columns (GE Life-science) and diluted to 50–100 μM. Nucleotide stocks (Sigma) were made in buffer to final concentrations between 1 and 3 mM. The heat of binding was measured over the injection of 295 μl of drug in 10-μl steps spaced 300 s apart. Data were fit to a one binding site model using the Origin software package (Microcal). Error bars represent the s.e. of the mean of three independent runs. Representative enthalpograms are shown in Supplementary Fig. 7.
# Supplementary Figure 7. Isothermal Titration Calorimetry of Src Binding to AMP-PNP and
# ADP (A) Sample titration curve for AMP-PNP binding to the Src kinase domain.(B) Sample
# titration curve of ADP binding to the Src kinase domain. All experiments were run in a VP-ITC
# instrument (Micro-cal) at 25 °C. Proteins were exchanged into 20 mM Tris (pH 8.0), 250 mM
# NaCl, 10 mM MgCl2 on PD-10 buffer exchange columns (GE Life-science), and diluted to 50–
# (§2) (1 picture or pasted object on this page, not shown here)
# Ser/Thr kinase PKA = settings: cited from earlier work
# Text: The putative allosteric network discussed above may manifest itself in the form of cooperativity between ATP and substrate binding. […] Higher concentrations of AMP-PNP, a non-hydrolysable ATP ana ...
# Abl kinase domain = target: T2, Abl kinase domain (Homo sapiens, UniProt P00519); test: Kinase activity assay, Abl kinase domain; format: biochemical; settings: increasing substrate-peptide (RS1) concentration; Fig. 3b
# T2 construct: human c-Abl (residues 229–512); made in house
# T2 sequence (P00519 229-512): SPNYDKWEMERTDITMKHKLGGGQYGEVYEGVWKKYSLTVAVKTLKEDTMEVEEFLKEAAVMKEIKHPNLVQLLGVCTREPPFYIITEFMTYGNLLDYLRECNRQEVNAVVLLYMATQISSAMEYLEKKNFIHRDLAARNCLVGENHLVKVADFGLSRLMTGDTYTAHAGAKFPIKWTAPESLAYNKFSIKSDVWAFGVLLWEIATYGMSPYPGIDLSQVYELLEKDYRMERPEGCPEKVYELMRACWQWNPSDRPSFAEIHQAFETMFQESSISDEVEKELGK
# Method: (§3) Mutations were introduced into the chicken c-Src kinase domain by site-directed mutagenesis and verified by DNA sequencing.
# (§4) For the continuous spectrophotometric assay[64], 12.5–800 μM ATP Src-optimal substrate peptide ([sequence])[34] was combined with 12.5–800 μM ATP. Concentrations of Src kinase domain used for these assays were 25 nM. The initial velocities were plotted and fit to the Michaelis–Menten equation in Kaleidagraph (Synergy Software) to determine Km.
# Src kinase domain [3] = target: T1, Src kinase domain; test: Kinase activity assay (continuous spectrophotometric), Src kinase domain; format: biochemical, chicken; settings: for Km: 25 nM Src kinase domain, mean ± s.e.m., triplicate
# Method: as §3, §4
# Src T338I = settings: T338I versus wild type
# Src D404N = test: Nucleotide binding to Src D404N; set-up: species or system chicken; settings: asparagine incapable of chelating Mg2+; Supplementary Fig. 10
# Method: as §1
# Supplementary Figure 10. Mutations to the allosteric network produce biochemical phenotypes. (A) Location of residues involved in the allosteric network (colored beads). (B) Representative conformations of Src wt and D404N. As shown, Asn404 mimics protonated Asp404 by forming hydrogen bonds with Asp386, and affects the conformation of Arg388, Trp428, and other residues involved in the substrate binding. (C) The effects of D404N mutation to three key residue-residue interaction of the putative allosteric network. (D) Dissociation […]
# substrate binding. […]
# Src 3-domain construct = test: Cooperativity in Src three-domain construct (KM and KD); format: binding; settings: Supplementary Fig. 6
# Text: Domain Kinase. (A) The effect of ATP concentration on substrate KM for Src kinase domain and 3-domain construct. (B) The effect of ATP concentration on substrate KM for WT and T338I mutant Src 3-domain construct (C) The effect of peptide concentration on ATP KM for Src kinase domain and 3-domain construct. (D) The effect of substrate concentration on ATP KM for WT and T338I mutant Src 3-domain construct. (E) Dissociation constants Src kinase domain and 3-domain constructs at increasing AMP-PNP concentration. (F) Dissociation constants for WT and T338I mutant Src 3-domain construct. KM values were determined in a kinase activity assay. KD values for the substrate peptides were determined using fluorescence anisotropy at 1 µM labeled peptide. All experiments were performed in triplicate, and data represent mean values ± s.e.m.
# as §2
# Src W260A = test: Kinase activity assay, Src W260A; format: biochemical, chicken; settings: W260A versus wild type
# Method: as §3, §4
# Hck kinase domain = target: T3, Hck kinase domain (Homo sapiens, UniProt P08631); test: Kinase activity assay, Hck kinase domain; format: biochemical; settings: increasing substrate-peptide (RS1) concentration; Fig. 3b
# T3 construct: human Hck (residues 166–445); made in house
# Method: as §3, §4
# [4] = target: T338I mutant Src 3-domain construct (Gallus gallus, UniProt P00523, T338I); test: Km of ATP and substrate peptide, T338I mutant Src 3-domain construct; format: biochemical; settings: higher Km for ATP, lower Km for substrate peptide
# kinase = settings: high Mg2+ concentration; cited from earlier work
# Text: Mg^2+ ions accompany ATP and ADP binding in protein kinases, mediating interactions between phosphate groups and conserved Asp and Asn residues (Asp404 and Asn391 in Src). On the other hand, in some kinase-ADP co-crystal structures, Mg^2+ ions are missing. In such cases, the Asp residue of the DFG motif (Asp404 in Src) is almost certainly protonated to prevent negative charge repulsion from the ADP phosphate group only 3.2 Å away (for example, PDB entry 1JBP (ref. [16])).
# [5] = 100 mM Tris, pH 8.0, 10 mM MgCl2, 25 °C
# T3 sequence (P08631 247-526): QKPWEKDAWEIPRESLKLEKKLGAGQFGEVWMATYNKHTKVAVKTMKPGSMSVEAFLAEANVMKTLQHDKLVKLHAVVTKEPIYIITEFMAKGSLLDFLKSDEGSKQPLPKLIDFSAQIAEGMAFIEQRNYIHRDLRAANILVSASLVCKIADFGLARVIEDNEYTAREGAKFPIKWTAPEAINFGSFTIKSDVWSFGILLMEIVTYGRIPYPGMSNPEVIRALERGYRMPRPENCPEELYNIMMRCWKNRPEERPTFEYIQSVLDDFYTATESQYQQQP
compound,measurement,setting,value
"GIYWHHY [Rs3, short substrate peptide (GIYWHHY)]",cooperativity of peptide and AMP-PNP binding,Src kinase domain [1]; [5],negative cooperativity independent of their overall affinity
CC[C@H](C)[C@H](NC(=O)[C@H](CCC(=O)O)NC(=O)[C@H](CCC(=O)O)NC(=O)[C@H](CCC(=O)O)NC(=O)[C@H](C)N)C(=O)N[C@@H](Cc1ccc(O)cc1)C(=O)NCC(=O)N[C@@H](CCC(=O)O)C(=O)N[C@@H](Cc1ccccc1)C(=O)N[C@@H](C)C(=O)N[C@@H](CCCCN)C(=O)N[C@@H](CCCCN)C(=O)N[C@@H](CCCCN)C(=O)O [Rs1],Kd,Src kinase domain [1],37 ± 7 µM
same,Kd,"Src kinase domain [1]; 100 μM ADP, 1 μM fluorescein-labelled peptide, 100 mM Tris, pH 8.0, 10 mM MgCl2, 25 °C, mean ± s.e.m., triplicate, read-out: Kd of substrate peptide at 100 μM ADP",17 ± 4 µM
same,Kd,"Src kinase domain [1]; 1,000 μM ADP, 1 μM fluorescein-labelled peptide, 100 mM Tris, pH 8.0, 10 mM MgCl2, 25 °C, mean ± s.e.m., triplicate, read-out: Kd of substrate peptide at 1,000 μM ADP",16 ± 2 µM
same,change of Kd of substrate peptide by AMP-PNP,"Src kinase domain [1]; 1 μM fluorescein-labelled peptide, 100 mM Tris, pH 8.0, 10 mM MgCl2, 25 °C, listed as optimal substrate peptide for Src",increase the Kd up to fivefold
same,change of Kd of substrate peptide by AMP-PNP,"Src kinase domain [1]; 1 μM fluorescein-labelled peptide, 100 mM Tris, pH 8.0, 10 mM MgCl2, 25 °C, listed as substrate peptide",increases the Kd of substrate peptide fivefold
Nc1ncnc2c1ncn2[C@@H]1O[C@H](COP(=O)(O)OP(=O)(O)NP(=O)(O)O)[C@@H](O)[C@H]1O [AMP-PNP],Kd,Src kinase domain [2],45 to 100 µM
same,fold reduction of nucleotide Kd by phosphorylated peptide (pRs1),Src kinase domain [2],three
AEEMIYGEFAKKK [Rs2],cooperativity of peptide and AMP-PNP binding,Src kinase domain [1]; [5],negative cooperativity independent of their overall affinity
Nc1ncnc2c1ncn2[C@@H]1O[C@H](COP(=O)(O)OP(=O)(O)OP(=O)(O)O)[C@@H](O)[C@H]1O [ATP],binding cooperativity of substrates and products (summary),Src kinase domain [1],negative cooperativity
same,Mg2+ dependence of binding and cooperativity,"Src kinase domain [1]; presence vs absence of Mg2+, ionic strength adjusted to 40 mM with NaCl, Supplementary Fig. 9",disrupts ATP binding; also recorded: requires the presence of Mg^2+
same,"cooperativity between ATP and substrate binding, PKA",Ser/Thr kinase PKA,positive cooperativity
same,"ATP Km versus substrate-peptide concentration, Abl",Abl kinase domain,increases with increasing substrate-peptide concentration
same,Km,"Src kinase domain [3]; 50 μM substrate peptide, read-out: Km for ATP at 50 μM substrate peptide",54 ± 22 µM
same,Km,"Src kinase domain [3]; 800 μM substrate peptide, read-out: Km for ATP at 800 μM substrate peptide",202 ± 21 µM
same,"ATP Km versus substrate-peptide concentration, Src","Src kinase domain [3]; increasing substrate-peptide (RS1) concentration, Fig. 3b",increases with increasing substrate-peptide concentration
same,Km of T338I for ATP relative to wild type,Src T338I,twofold higher
same,ATP binding to Src D404N,Src D404N,does not bind ATP favourably
same,"cooperativity of ATP and substrate binding, three-domain construct",Src 3-domain construct,negative cooperativity is present
same,Km of W260A for ATP relative to wild type,Src W260A,two- to fivefold lower
same,"ATP Km versus substrate-peptide concentration, Hck",Hck kinase domain,increases with increasing substrate-peptide concentration
same,Km of T338I three-domain Src relative to wild type,[4],This relationship holds for three-domain Src
Nc1ncnc2c1ncn2[C@@H]1O[C@H](COP(=O)(O)OP(=O)(O)O)[C@@H](O)[C@H]1O [ADP],binding cooperativity of substrates and products (summary),Src kinase domain [1],positive cooperativity
same,Kd,Src kinase domain [2],45 to 100 µM
same,fold reduction of nucleotide Kd by phosphorylated peptide (pRs1),Src kinase domain [2],twofold
same,ADP release in kinase catalytic cycle,kinase,slower at high Mg^2+ concentration
